Test systems include HCT-15 colon; HT29 colon; RXF 393 renal; HOP-62 NSCLC; TK-10 renal; SK-MEL-28 melanoma; MDA-N; SNB-19 CNS; U251 CNS; HOP-92 NSCLC; ACHN renal; A498 renal; PC-3 prostate; OVCAR-4 ovarian; SK-MEL-5 melanoma; SNB-75 CNS; OVCAR-8 ovarian; HCT-116 colon; M14 melanoma; UACC-257 melanoma.
Experiment in all cases: NCI tumour cell line growth inhibition, 48 h

Each structure is given as a SMILES string.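 Values below derive from 48-hour exposures of cells grown in 96-well plates, with endpoints linearly interpolated between the two concentrations bracketing the appropriate inhibition level. The concentration for full growth arrest is given as TGI.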

Consider `CC(C)N1CSC(=S)N(Cc2ccccc2)C1`, for which the TGI is > 10 µM with HCT-15 colon; 6.04 µM in the assay with HT29 colon; 6.27 µM with RXF 393 renal; > 10 µM in the assay on HOP-62 NSCLC; > 10 µM in the assay with TK-10 renal; > 10 µM in the assay with SK-MEL-28 melanoma. Also, the TGI with MDA-N is 7.44 µM; in the assay with SNB-19 CNS, > 10 µM; in the assay on U251 CNS, > 10 µM; in the assay on HOP-92 NSCLC, 8.39 µM; with ACHN renal, > 10 µM; in the assay on A498 renal, > 10 µM. Moreover, the TGI in the assay on PC-3 prostate, in the assay on OVCAR-4 ovarian, in the assay on SK-MEL-5 melanoma, in the assay with SNB-75 CNS, in the assay on OVCAR-8 ovarian and in the assay on HCT-116 colon was > 10 µM in each case.
In the case of `Cc1c2cnccc2nc2[nH]c3ccncc3c12`, the TGI in the assay with HCT-15 colon is 28.8 µM; in the assay on HT29 colon, > 100 µM; in the assay with HOP-62 NSCLC, 18.4 µM; in the assay with TK-10 renal, 24.3 µM; with M14 melanoma it was 20.6 µM; with SK-MEL-28 melanoma, > 100 µM. The TGI in the assay on UACC-257 melanoma is 94.9 µM; with MDA-N, 43.2 µM; with SNB-19 CNS, > 100 µM; in the assay with U251 CNS, > 100 µM; in the assay on HOP-92 NSCLC it was 25.3 µM; in the assay with ACHN renal, 13.6 µM. Also, the TGI in the assay with A498 renal was 47.5 µM; with PC-3 prostate, > 100 µM; in the assay with OVCAR-4 ovarian, > 100 µM; in the assay on SK-MEL-5 melanoma, 20.6 µM; in the assay on SNB-75 CNS, > 100 µM; in the assay on OVCAR-8 ovarian, > 100 µM.
As for `Cn1c(COC(=O)NC2CCCCC2)c(COC(=O)NC2CCCCC2)c2ccc3cc(Cl)c(Cl)cc3c21`, the TGI is 24.7 µM in the assay with HCT-15 colon; 69.3 µM with HT29 colon; 21.4 µM in the assay with RXF 393 renal; 30.6 µM in the assay on TK-10 renal; 36.7 µM in the assay with M14 melanoma; 50.2 µM in the assay with SK-MEL-28 melanoma. For the same compound, the TGI with UACC-257 melanoma amounted to 29 µM; in the assay on MDA-N it was 25.4 µM; with SNB-19 CNS, 26.1 µM; with HOP-92 NSCLC, 19.5 µM; in the assay on ACHN renal, 32.3 µM; with A498 renal, 25.9 µM. Moreover, the TGI is 32.9 µM with PC-3 prostate; 26.4 µM with SK-MEL-5 melanoma; 27.8 µM in the assay with SNB-75 CNS; > 100 µM in the assay with OVCAR-8 ovarian; 23.1 µM in the assay on HCT-116 colon.
In the case of `CCOC(=O)COc1ccc(/C=C/C(=O)c2ccc(OC)cc2)cc1`, the TGI in the assay on HCT-15 colon was 77.3 µM; in the assay on HT29 colon it was 64.9 µM; in the assay on RXF 393 renal, 46 µM; with HOP-62 NSCLC, 53.3 µM; with TK-10 renal, > 100 µM; with M14 melanoma, > 100 µM. Further, the TGI in the assay on SK-MEL-28 melanoma is 58.4 µM; with UACC-257 melanoma it was 57.3 µM; in the assay with MDA-N it was 75.1 µM; with SNB-19 CNS, > 100 µM; in the assay with U251 CNS, 34.6 µM; in the assay with HOP-92 NSCLC, 48.2 µM. Moreover, the TGI in the assay with ACHN renal is > 100 µM; with A498 renal, > 100 µM; with PC-3 prostate it was 62.5 µM; with SNB-75 CNS it was > 100 µM; in the assay on OVCAR-8 ovarian, > 100 µM; in the assay with HCT-116 colon, 57.7 µM.
In the case of `N#Cc1ccc(OCc2ccc3nc(-c4ccccc4)c(Cl)nc3c2)cc1`, the TGI in the assay with HCT-15 colon, in the assay with HT29 colon, in the assay on HOP-62 NSCLC, in the assay with TK-10 renal, in the assay with M14 melanoma and in the assay on SK-MEL-28 melanoma was > 100 µM each time. The TGI in the assay on UACC-257 melanoma, in the assay on MDA-N, in the assay on SNB-19 CNS, with U251 CNS, in the assay with HOP-92 NSCLC and with ACHN renal was > 100 µM throughout. In addition, the TGI with A498 renal, with PC-3 prostate, with OVCAR-4 ovarian, in the assay on SK-MEL-5 melanoma, in the assay with SNB-75 CNS and in the assay on OVCAR-8 ovarian was > 100 µM in each case. In addition, in the assay with HCT-116 colon, the TGI was > 100 µM.
`N#Cc1c2c([nH]c(=O)c1C#N)CCCC2`: the TGI in the assay on HCT-15 colon, with HT29 colon, with RXF 393 renal, in the assay on TK-10 renal, in the assay with M14 melanoma and with SK-MEL-28 melanoma was > 100 µM each time. Further, the TGI in the assay with UACC-257 melanoma, in the assay with MDA-N, with SNB-19 CNS, in the assay with U251 CNS, in the assay on HOP-92 NSCLC and with ACHN renal was > 100 µM throughout. The TGI in the assay with A498 renal, with PC-3 prostate, in the assay with SK-MEL-5 melanoma, with SNB-75 CNS, in the assay with OVCAR-8 ovarian and with HCT-116 colon was > 100 µM each time.
